Test results as given in US20210181109A1 (FUJIFILM Corporation, priority 2018, published 2021).
Where two headings read alike, the source gives them in different places.

How the values were obtained:
[1] = Average score of NAC and NAL depletion and prediction of skin allergenicity, fluorescence method
In short: (§1)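 Score is the mean of NAC and NAL depletion percentages, rounded at the second decimal place. Test substances classed as allergenic (S) or non-allergenic (NS) from depletion of NAC, NAL, or their average score.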

[2] = NAC depletion percent, HPLC-UV detection (281 nm); conditions: single substance, test substance solution 1 mmol/L, Reference (UV method)
In short: (§2)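 NAC at 5 μmol/L in pH 8.0 phosphate buffer reacted with test substance (1 mmol/L stock in water, acetonitrile, acetone or 5% DMSO/acetonitrile) 24 h at 25 °C in the dark, n=3. Stopped with TFA (0.5% final); unreacted NAC quantified by HPLC, depletion percent calculated against blank without test substance.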

[3] = NAL depletion percent, HPLC-fluorescence detection; conditions: single substance, test substance solution 1 mmol/L, fluorescence method
In short: (§3)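 NAL (5 μmol/L, pH 10.2 phosphate buffer) reacted with test substance (1 mmol/L stock in water, acetonitrile, acetone or 5% DMSO/acetonitrile) for 24 h at 25 °C in the dark; stopped with TFA to 0.5%. Unreacted NAL quantified by HPLC (UV or fluorescence), n=3; depletion % relative to substance-free blank.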

[4] = NAL depletion percent, HPLC-UV detection (281 nm); conditions: single substance, test substance solution 1 mmol/L, Reference (UV method)
In short: as §3

[5] = Average score of NAC and NAL depletion and prediction of skin allergenicity, UV method
In short: as §1

[6] = cited from earlier work
[7] = NAC depletion percent, HPLC-fluorescence detection; conditions: single substance, test substance solution 1 mmol/L, fluorescence method
In short: as §2

[8] = single substance, test substance solution 1 mmol/L, fluorescence method
[9] = single substance, Reference (UV method), criterion average score […]
[10] = single substance, test substance solution 1 mmol/L, Reference (UV method)
[11] = known values, LLNA-test-based classification, − for non-allergenic substances
[12] = single substance, fluorescence method, criterion average score […]

| Structure (SMILES) | Prediction result [1] | Average score [1, 8] [%] | NAC depletion (%) [2] [%] | NAL depletion (%) [3] [%] | NAL depletion (%) [4] [%] | Prediction result [5, 9] | Average score [5, 10] [%] | EC3 (%) [6, 11] [%] | NAC depletion (%) [7] [%] | Prediction result [1, 12] | Average score [1] [%] | Average score [5] [%] | Prediction result [5] | EC3 (%) ([6]; in vivo) |
| --- | --- | --- | --- | --- | --- | --- | --- | --- | --- | --- | --- | --- | --- | --- |
| O=C1C=CC(=O)C=C1 [p-Benzoquinone] | S (key: S represents as being an allergenic substance; NS represents as being a non-allergenic substance) | 85.9 | 96.5 | 71.8 | 83.5 | S (S represents as being an allergenic substance) | 90.0 | 0.0099 | 100.0 | – | – | – | – | – |
| C=C(C)C(=O)OCCOC(=O)C(=C)C [Ethylene glycol dimethacrylate] | – | 4.4 | 5.9 | 1.5 | 2.6 | NS (NS represents as being a non-allergenic substance) | 4.3 | 28 | 7.3 | NS (NS represents as being a non-allergenic substance) | – | – | – | – |
| C=CCc1ccc(OC)cc1 [4-Allylanisole] | – | 7.9 | 27.0 | 0.7 | 3.9 | S (S represents as being an allergenic substance) | 15.4 | 18 | 15.0 | S (S represents as being an allergenic substance) | – | – | – | – |
| CCO/C=C1\N=C(c2ccccc2)OC1=O [Oxazolone] | S (key: S represents as being an allergenic substance; NS represents as being a non-allergenic substance) | – | 85.3 | 65.5 | 80.1 | – | – | – | 92.0 | – | 78.8 | 82.7 | S (key: S represents as being an allergenic substance; NS represents as being a non-allergenic substance) | 0.003 |
| O=c1c(-c2ccccc2)c1-c1ccccc1 [Diphenylcyclopropenone] | – | 16.0 | 28.7 | 2.4 | 6.3 | S (S represents as being an allergenic substance) | 17.5 | 0.0003 | 29.7 | S (S represents as being an allergenic substance) | – | – | – | – |
| CCCCCCC#CC(=O)OC [Methyl 2-nonynoate] | – | 7.8 | 15.0 | 3.2 | 1.4 | S (S represents as being an allergenic substance) | 8.2 | 2.5 | 12.4 | S (S represents as being an allergenic substance) | – | – | – | – |
